Reference: article PMC12555100, “Dextromethorphan Versus Dextrorphan: A Quantitative Comparison of Antitussive Potency Following Separate Administration of Metabolite” (Journal of Clinical Pharmacology, 2025)
“And” between values parts separate entries of the source, which are not always exact repeats. Equal values may be shown once. Read-outs that look alike come from different tables or passages of the source.

Legend:
Caco‐2 monolayers = settings: cited from earlier work
[1] = Population pharmacokinetic model (joint parent drug-metabolite model; two-compartment model for DOR given on its own); assay type: in vivo, human; settings: for Vd/F / Between‐subject variability of V/F: after administration of DEX; for Vd/F: taken as equal for DEX and DOR, read-out: V/F, volume of distribution; for Between‐subject variability of V/F: common to DEX and DOR
Procedure: (§1) Pharmacokinetic/pharmacodynamic analysis (PKPD) of DEX and DOR was conducted using non‐linear mixed effects modelling with Monolix software, 2024R1 (Lixoft SAS, Antony, France). The analysis followed a sequential approach, where the PK parameters of both compounds were estimated initially, and then these were used alongside the cough data to build the PK/PD model. The model components are described below:
A joint parent drug‐metabolite model[26] (Figure 1) was considered for DEX and DOR following administration of DEX with first‐pass effect and without dose apportionment. Different goodness‐of‐fit factors, such as corrected Bayesian information criterion (BICc), various diagnostic plots, such as visual predictive check used for final model selection. This model assumed a one‐compartment model for both compounds and unidirectional transformation of the parent drug to the metabolite in DEX arm of the study. The distribution of DOR after its administration on its own in a separate arm of the study was considered to follow a two‐compartment model. Inter‐individual variability of PK parameters was assumed to be log‐normally distributed. Proportional error model was used to model the intra‐individual variability.
Figure 1 Schematic representation of the joint parent drug‐metabolite structural model with first‐pass effect and without dose‐apportionment used to describe the pharmacokinetics of dextromethorphan and dextrorphan following administration of dextromethorphan. F, bioavailability of the parent drug; DEX dose, dose of dextromethorphan; ka(DORDEX), absorption constant of dextromethorphan; ka(DOR), absorption constant of dextrorphan; kpm, transformation rate constant from parent to metabolite; VDEX and VDOR_DEX are the volume of the central compartment for the dextromethorphan and dextrorphan, respectively which are considered to be equal; k(DEX), elimination rate constant for dextromethorphan by other pathways; k(DOR), the elimination constant of dextrorphan.
As shown, the concentration of DOR formed by the metabolism of DEX is higher than that of the DOR after preformed DOR is administered on its own. The joint parent drug‐metabolite model with first‐pass effect and without dose apportionment best described the plasma concentration‐time profile of DEX and unconjugated DOR following administration of DEX. The two‐compartment model fitted well to the data of DOR from the administration of preformed DOR. The goodness‐of‐fit of the combined models could be seen in the observed versus predicted plots and visual predictive check graphs of the models (Figure 4). […] Since there was not enough data in the absorption phase, the value of first‐order absorption rate constant for both DEX and preformed DOR was fixed to the reported values of 2.6 h^−1 23. To prevent the identifiability problem, equal extravascular apparent volume of distributions were considered for the parent drug and the metabolite in the joint model. It is important to emphasize that the primary focus of this study is on characterizing the PKPD relationship rather than on developing a detailed PK model. While a mechanistic PK model can provide insights, our primary objective can also be achieved using any empirical PK model, provided it adequately describes the data and supports the PKPD link. The selection of a one‐compartment model for DEX and a two‐compartment model for DOR reflects this practical approach and ensures compatibility with the data under different conditions. The disparity of the disposition model for DOR may indicate that formation kinetics from DEX masks the first phase of distribution when assessing the kinetics of formed DOR, whilst this becomes evident under direct administration of DOR.

[2] = system: cough response to citric acid challenge; assay: PK-PD effect compartment link model of cough response; assay type: in vivo, human; settings: for Between‐subject variability of ke0: PKPD model
Procedure: as §1
The cough response (number of coughs) of the placebo arm of the study was described by the following equation that has been reported in a previous study[27] with some minor modifications: EPlacebo=Baselinecough×scale×k×e^−k×t in which EPlacebo is the placebo effect, BaselineCough is the number of coughs at time (t) zero (before administration of any of the drugs or placebo), scale is the constant of the magnitude of the cough response, and k is the first‐order rate constant for nonlinear suppression of the cough response and return to the baseline. The distribution of all parameters was assumed to be log normal. A constant error model was used to describe intra‐individual variability.
An effect compartment model in which ke0 (DEX) and ke0 (DOR) are the effect‐site equilibration rate constants for DEX and DOR, respectively, was used to link the plasma concentrations of DEX and DOR to the combined effect of the two moieties at the same receptor. This combined effect is described by the following equation: E=EPlacebo×1−Imax×CeDEX/IC50+CeDOR×Pot/IC50^n/1+CeDEX/IC50+CeDOR×Pot/IC50^n in which I max is the maximum antitussive effect, IC50 the concentration of drugs that results in half of the maximum effect, Pot is the relative potency of DOR to DEX and CeDEX and CeDOR are the effect compartment concentrations of DEX and DOR, respectively.[23] Log‐normal distribution model was used to describe the inter‐individual variability of the model parameters and intra‐individual variability was described by a constant error model.

[3] = fixed in the model for DEX and directly administered (preformed) DOR, cited from earlier work
[4] = both sexes, human, plasma, oral, population estimate
[5] = population PK model, direct administration of DOR
[6] = population estimate, after direct administration of DOR
[7] = population estimate, common parameter of the combined DEX+DOR effect model

CN1CC[C@@]23CCCC[C@@H]2[C@@H]1Cc1ccc(O)cc13 [DOR, dextrorphan]
Permeability, DEX compared with DOR (Caco‐2 monolayers): comparable permeability | Vd/F [1, 4]: 4870 L | Between‐subject variability of k(DOR) ([1]; population PK model): 32 CV% | Between‐subject variability of V/F ([1]; population PK model): 48 CV% | Between‐subject variability of V1/F(DOR) [1, 5]: 32 CV% | Between‐subject variability of k12(DOR) [1, 5]: 196 CV% | Between‐subject variability of k21(DOR) [1, 5]: 299 CV% | k(DOR), elimination constant of dextrorphan ([1]; population estimate): 0.2 h⁻¹ | V1/F(DOR), volume of the central compartment [1, 6]: 6984 L | k12(DOR), transfer rate constant central to peripheral [1, 6]: 0.57 h⁻¹ | k21(DOR), transfer rate constant peripheral to central [1, 6]: 0.60 h⁻¹ | Between‐subject variability of ke0 [2]: 171 CV% | Maximum cough inhibition (Imax) ([2]; model-based estimate, as percent): 23% | ke0, transfer rate constant from the central to the effect compartment ([2]; population estimate): 0.02 h⁻¹ | Relative potency of DOR to DEX ([2]; population estimate, as fraction): 0.26 | Imax, the maximum antitussive effect (fraction of the baseline) [2, 7]: 0.23 | N, Hill coefficient [2, 7]: 2.8 | ka, first-order absorption rate constant (fixed) [3]: 2.6 (fixed) h^−1 | ka, first-order absorption rate constant (fixed) ([3]; listed as preformed DOR): 2.6 h⁻¹

COc1ccc2c(c1)[C@]13CCCC[C@@H]1[C@H](C2)N(C)CC3 [DEX, dextromethorphan]
Permeability, DEX compared with DOR (Caco‐2 monolayers): comparable permeability | Vd/F [1, 4]: 4870 L | k el ([1]; both sexes, human, plasma, oral, population estimate, read-out: k(DEX), elimination rate constant for dextromethorphan by other pathways (converted)): 2.78e-05 s⁻¹ | Between‐subject variability of k(DEX) ([1]; population PK model): 108 CV% | Between‐subject variability of kpm ([1]; population PK model): 43 CV% | Between‐subject variability of V/F ([1]; population PK model): 48 CV% | kpm, transformation rate constant from parent (dextromethorphan) to metabolite (dextrorphan) ([1]; population estimate): 0.04 h⁻¹ | Between‐subject variability of ke0 [2]: 176 CV% | ke0, transfer rate constant from the central to the effect compartment ([2]; population estimate): 0.08 h⁻¹ | ka, first-order absorption rate constant (fixed) [3]: 2.6 h^−1 and 2.6 (fixed) h^−1
